Assay results taken from patent US12539292B2, “BRM targeting compounds and associated methods of use” (Arvinas Operations, Inc., priority 2018, dated 2026).
Read-outs that look alike come from different tables or passages of the source.

Molecular target: T1, BRM (Homo sapiens, UniProt P51531)
T1 construct: In-Cell Western Screen of BRM Degradation in SW1573 Cells; endogenous in cells; host or cells: SW1573
Assay: In-cell Western screen of BRM degradation in SW1573 cells (Dmax and DC50)
Assay type: cell-based
Outline: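 SW1573, overnight cpd exposure (18-20 h), 0.1% DMSO final. PFA fix, 0.5% Triton permeabilization, block; IR secondaries at 800/680 nm. Odyssey read → Dmax, DC50.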

[1] = target protein degradation, read-out: BRM DC50
[2] = BRM degradation, SW1573 cells, read-out: DC50
[3] = BRM degradation, SW1573 cells, tested at the top concentration of between 0.3 and 10 μM, read-out: Dmax (%) (% degraded)
[4] = BRM degradation, SW1573 cells, Table 2D, read-out: **Dmax (%) (% degraded)
[5] = BRM degradation, SW1573 cells, Table 2D, read-out: *DC50
[6] = SW1573, % degraded, when tested at the top concentration of between 0.3 and 10 μM, read-out: BRM Dmax (%)

T1 sequence (P51531 whole entry): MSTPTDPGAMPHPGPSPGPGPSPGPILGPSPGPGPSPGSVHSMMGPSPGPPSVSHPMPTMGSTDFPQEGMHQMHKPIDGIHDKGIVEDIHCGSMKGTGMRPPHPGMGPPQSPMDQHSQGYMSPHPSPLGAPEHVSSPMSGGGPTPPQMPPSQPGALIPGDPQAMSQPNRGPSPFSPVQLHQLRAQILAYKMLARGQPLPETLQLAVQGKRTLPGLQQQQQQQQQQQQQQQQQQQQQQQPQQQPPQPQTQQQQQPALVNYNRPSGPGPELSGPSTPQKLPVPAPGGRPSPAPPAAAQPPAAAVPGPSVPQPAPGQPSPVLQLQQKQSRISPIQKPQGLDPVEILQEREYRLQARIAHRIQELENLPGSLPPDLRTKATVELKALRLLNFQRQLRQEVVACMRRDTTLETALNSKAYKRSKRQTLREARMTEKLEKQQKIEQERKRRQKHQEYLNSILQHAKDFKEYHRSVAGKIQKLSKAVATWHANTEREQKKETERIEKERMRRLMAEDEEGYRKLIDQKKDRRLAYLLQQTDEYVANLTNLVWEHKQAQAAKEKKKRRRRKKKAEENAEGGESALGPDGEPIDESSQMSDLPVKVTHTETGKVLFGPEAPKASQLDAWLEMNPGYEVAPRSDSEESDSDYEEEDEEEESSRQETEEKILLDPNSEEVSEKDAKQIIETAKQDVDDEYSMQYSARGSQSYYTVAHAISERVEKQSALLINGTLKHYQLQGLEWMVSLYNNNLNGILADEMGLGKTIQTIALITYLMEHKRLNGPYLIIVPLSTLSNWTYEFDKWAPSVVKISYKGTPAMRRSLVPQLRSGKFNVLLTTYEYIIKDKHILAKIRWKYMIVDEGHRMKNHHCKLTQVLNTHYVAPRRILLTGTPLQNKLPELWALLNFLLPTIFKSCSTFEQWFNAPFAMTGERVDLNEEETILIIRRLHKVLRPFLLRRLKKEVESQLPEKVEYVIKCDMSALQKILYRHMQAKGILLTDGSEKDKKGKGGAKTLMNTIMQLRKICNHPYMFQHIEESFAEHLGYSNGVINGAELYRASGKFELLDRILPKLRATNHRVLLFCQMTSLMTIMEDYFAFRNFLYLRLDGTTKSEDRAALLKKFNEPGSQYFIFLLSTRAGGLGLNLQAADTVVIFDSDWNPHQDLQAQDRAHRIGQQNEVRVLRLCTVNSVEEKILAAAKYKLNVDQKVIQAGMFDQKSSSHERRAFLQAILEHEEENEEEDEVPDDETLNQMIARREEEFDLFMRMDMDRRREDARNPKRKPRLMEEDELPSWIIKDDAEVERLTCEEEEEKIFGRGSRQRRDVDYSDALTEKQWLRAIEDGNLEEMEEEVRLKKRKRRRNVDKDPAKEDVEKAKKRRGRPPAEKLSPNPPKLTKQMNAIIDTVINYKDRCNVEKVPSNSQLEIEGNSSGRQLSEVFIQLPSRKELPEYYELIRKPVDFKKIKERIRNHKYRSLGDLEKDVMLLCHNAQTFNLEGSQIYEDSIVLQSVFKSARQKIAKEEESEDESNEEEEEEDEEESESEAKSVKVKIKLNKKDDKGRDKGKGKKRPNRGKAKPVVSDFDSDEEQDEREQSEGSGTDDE

Cc1ncsc1-c1ccc([C@H](C)NC(=O)[C@@H]2C[C@@H](O)CN2C(=O)[C@@H](c2cc(OCCC3CCN(C(=O)[C@H]4C[C@H](CN5CCC([C@H](C)n6cc(-c7cc(-c8ccccc8O)nnc7N)cn6)CC5)C4)CC3)no2)C(C)C)cc1 [compound 454, (2S,4R)-1-((R)-2-(3-(2-(1-((1S,3R)-3-((4-((S)-1-(4-(3-amino-6-(2-hydroxyphenyl)pyridazin-4-yl)-1H-pyrazol-1-yl)ethyl)piperidin-1-yl)methyl)cyclobutane-1-carbonyl)piperidin-4-yl)ethoxy)isoxazol-5-yl)-3-methylbutanoyl)-4-hydroxy-N-((S)-1-(4-(4-methylthiazol-5-yl)phenyl)ethyl)pyrrolidine-2-carboxamide]
DC50 [1]: > 30 nM

Cc1cnn(C)c1-c1ccc([C@H](C)NC(=O)[C@@H]2C[C@@H](O)CN2C(=O)[C@@H](c2cc(OCCN3CCC(O[C@H]4C[C@H](Oc5cc(N6C7CCC6CN(c6cc(-c8ccccc8O)nnc6N)C7)ccn5)C4)CC3)no2)C(C)C)cc1 [compound 295, (2S,4R)-1-((2R)-2-(3-(2-(4-((1r,3R)-3-((4-(3-(3-amino-6-(2-hydroxyphenyl)pyridazin-4-yl)-3,8-diazabicyclo[3.2.1]octan-8-yl)pyridin-2-yl)oxy)cyclobutoxy)piperidin-1-yl)ethoxy)isoxazol-5-yl)-3-methylbutanoyl)-N-((S)-1-(4-(1,4-dimethyl-1H-pyrazol-5-yl)phenyl)ethyl)-4-hydroxypyrrolidine-2-carboxamide]
DC50 [2]: < 2.5 nM | Dmax [3]: > 75%

Cc1ncsc1-c1ccc([C@H](C)NC(=O)[C@@H]2C[C@@H](O)CN2C(=O)[C@@H](c2cc(N3CCC(CN4CCC(CCOc5cc(N6C7CCC6CN(c6cc(-c8ccccc8O)nnc6N)C7)ccn5)CC4)CC3)no2)C(C)C)cc1 [compound 604, (2S,4R)-1-((2R)-2-(3-(4-((4-(2-((4-(3-(3-amino-6-(2-hydroxyphenyl)pyridazin-4-yl)-3,8-diazabicyclo[3.2.1]octan-8-yl)pyridin-2-yl)oxy)ethyl)piperidin-1-yl)methyl)piperidin-1-yl)isoxazol-5-yl)-3-methylbutanoyl)-4-hydroxy-N-((S)-1-(4-(4-methylthiazol-5-yl)phenyl)ethyl)pyrrolidine-2-carboxamide]
Dmax [4]: > 75% | DC50 [5]: < 2.5 nM

Cc1ncsc1-c1ccc([C@@H](COCC2CCOCC2)NC(=O)[C@@H]2C[C@@H](O)CN2C(=O)[C@@H](c2cc(OCCN3CCN(CCOc4cc(N5C6CCC5CN(c5cc(-c7ccccc7O)nnc5N)C6)ccn4)CC3)no2)C(C)C)cc1 [compound 273, (2S,4R)-1-((2R)-2-(3-(2-(4-(2-((4-(3-(3-amino-6-(2-hydroxyphenyl)pyridazin-4-yl)-3,8-diazabicyclo[3.2.1]octan-8-yl)pyridin-2-yl)oxy)ethyl)piperazin-1-yl)ethoxy)isoxazol-5-yl)-3-methylbutanoyl)-4-hydroxy-N-((S)-1-(4-(4-methylthiazol-5-yl)phenyl)-2-((tetrahydro-2H-pyran-4-yl)methoxy)ethyl)pyrrolidine-2-carboxamide]
DC50 [2]: < 2.5 nM | Dmax [3]: > 75%

CC(C)[C@@H](C(=O)N1C[C@H](O)C[C@H]1C(=O)N[C@@H](C)c1ccc(-c2scnc2CO)cc1)c1cc(OCCN2CCC(O[C@H]3C[C@H](Oc4cc(N5C6CCC5CN(c5cc(-c7ccccc7O)nnc5N)C6)ccn4)C3)CC2)no1 [compound 211, (2S,4R)-1-((2R)-2-(3-(2-(4-((1r,3R)-3-((4-(3-(3-amino-6-(2-hydroxyphenyl)pyridazin-4-yl)-3,8-diazabicyclo[3.2.1]octan-8-yl)pyridin-2-yl)oxy)cyclobutoxy)piperidin-1-yl)ethoxy)isoxazol-5-yl)-3-methylbutanoyl)-4-hydroxy-N-((S)-1-(4-(4-(hydroxymethyl)thiazol-5-yl)phenyl)ethyl)pyrrolidine-2-carboxamide]
DC50 [2]: < 2.5 nM | Dmax [3]: > 75%

Cc1ncsc1-c1ccc(CNC(=O)[C@@H]2C[C@@H](O)CN2C(=O)[C@@H](NC(=O)CN2CCN(c3ccc(CCOCCCc4cc(N5C6CCC5CN(c5cc(-c7ccccc7O)nnc5N)C6)ccn4)cn3)CC2)C(C)(C)C)cc1 [compound 48, (2S,4R)-1-((2S)-2-(2-(4-(5-(2-(3-(4-(3-(3-amino-6-(2-hydroxyphenyl)pyridazin-4-yl)-3,8-diazabicyclo[3.2.1]octan-8-yl)pyridin-2-yl)propoxy)ethyl)pyridin-2-yl)piperazin-1-yl)acetamido)-3,3-dimethylbutanoyl)-4-hydroxy-N-(4-(4-methylthiazol-5-yl)benzyl)pyrrolidine-2-carboxamide]
DC50 [2]: > 30 nM | Dmax (BRM degradation, SW1573 cells, when tested at the top concentration of between 0.3 and 10 μM, read-out: Dmax (%) (% degraded)): > 75%

Cc1nccn1-c1ccc([C@H](C)NC(=O)[C@@H]2C[C@@H](O)CN2C(=O)[C@@H](c2cc(N3CCC(O[C@H]4C[C@H](Oc5cc(N6C7CCC6CN(c6cc(-c8ccccc8O)nnc6N)C7)ccn5)C4)CC3)no2)C(C)C)cc1 [compound 601, (2S,4R)-1-((2R)-2-(3-(4-((1r,3R)-3-((4-(3-(3-amino-6-(2-hydroxyphenyl)pyridazin-4-yl)-3,8-diazabicyclo[3.2.1]octan-8-yl)pyridin-2-yl)oxy)cyclobutoxy)piperidin-1-yl)isoxazol-5-yl)-3-methylbutanoyl)-4-hydroxy-N-((S)-1-(4-(2-methyl-1H-imidazol-1-yl)phenyl)ethyl)pyrrolidine-2-carboxamide]
Dmax [4]: > 75% | DC50 [5]: < 2.5 nM

Cc1ncsc1-c1ccc([C@@H](COCC2CCOCC2)NC(=O)[C@@H]2C[C@@H](O)CN2C(=O)[C@H](c2cc(OCCN3CCN(CCOc4cc(N5C6CCC5CN(c5cc(-c7ccccc7O)nnc5N)C6)ccn4)CC3)no2)C(C)C)cc1 [compound 272, (2S,4R)-1-((2S)-2-(3-(2-(4-(2-((4-(3-(3-amino-6-(2-hydroxyphenyl)pyridazin-4-yl)-3,8-diazabicyclo[3.2.1]octan-8-yl)pyridin-2-yl)oxy)ethyl)piperazin-1-yl)ethoxy)isoxazol-5-yl)-3-methylbutanoyl)-4-hydroxy-N-((S)-1-(4-(4-methylthiazol-5-yl)phenyl)-2-((tetrahydro-2H-pyran-4-yl)methoxy)ethyl)pyrrolidine-2-carboxamide]
DC50 [2]: > 30 nM

Cc1ncsc1-c1ccc([C@H](C)NC(=O)[C@@H]2C[C@@H](O)CN2C(=O)[C@@H](c2cc(OCCN3CC[C@@H](O[C@H]4C[C@H](Oc5cc(N6C7CCC6CN(c6cc(-c8ccccc8O)nnc6N)C7)ccn5)C4)C[C@H]3C)no2)C(C)C)cc1 (single isomer, unassigned) [compound 634]
DC50 [2]: < 2.5 nM | Dmax (BRM degradation, SW1573 cells, read-out: Dmax (% degraded)): > 75%

Cc1ncsc1-c1cnc([C@@H](C)NC(=O)[C@@H]2C[C@@H](O)CN2C(=O)[C@@H](c2cc(OCCN3CCC(O[C@H]4C[C@H](Oc5cc(N6C7CCC6CN(c6cc(-c8ccccc8O)nnc6N)C7)ccn5)C4)CC3)no2)C(C)C)cn1 [compound 441, (2S,4R)-1-((2R)-2-(3-(2-(4-((1r,3R)-3-((4-(3-(3-amino-6-(2-hydroxyphenyl)pyridazin-4-yl)-3,8-diazabicyclo[3.2.1]octan-8-yl)pyridin-2-yl)oxy)cyclobutoxy)piperidin-1-yl)ethoxy)isoxazol-5-yl)-3-methylbutanoyl)-4-hydroxy-N-((R)-1-(5-(4-methylthiazol-5-yl)pyrazin-2-yl)ethyl)pyrrolidine-2-carboxamide]
Dmax [6]: > 75% | DC50 (degradation of BRM, read-out: BRM DC50): 2.5 to 10 nM

Cc1ncsc1-c1ccc([C@H](C)NC(=O)[C@@H]2C[C@@H](O)CN2C(=O)[C@@H](c2cc(OCCN[C@H]3CC[C@H](O[C@H]4C[C@H](Oc5cc(N6C7CCC6CN(c6cc(-c8ccccc8O)nnc6N)C7)ccn5)C4)CC3)no2)C(C)C)cn1 [compound 396, (2S,4R)-1-((2R)-2-(3-(2-(((1R,4R)-4-((1r,3R)-3-((4-(3-(3-amino-6-(2-hydroxyphenyl)pyridazin-4-yl)-3,8-diazabicyclo[3.2.1]octan-8-yl)pyridin-2-yl)oxy)cyclobutoxy)cyclohexyl)amino)ethoxy)isoxazol-5-yl)-3-methylbutanoyl)-4-hydroxy-N-((S)-1-(6-(4-methylthiazol-5-yl)pyridin-3-yl)ethyl)pyrrolidine-2-carboxamide]
Dmax [6]: > 75% | DC50 [1]: 2.5 to 10 nM

Cc1ncsc1-c1ccc([C@H](C)NC(=O)[C@@H]2C[C@@H](O)CN2C(=O)[C@@H](c2cc(OCCN(C(C)C)[C@H]3CC[C@H](O[C@H]4C[C@H](Oc5cc(N6C7CCC6CN(c6cc(-c8ccccc8O)nnc6N)C7)ccn5)C4)CC3)no2)C(C)C)cn1 [compound 505, (2S,4R)-1-((2R)-2-(3-(2-(((1R,4R)-4-((1r,3R)-3-((4-(3-(3-amino-6-(2-hydroxyphenyl)pyridazin-4-yl)-3,8-diazabicyclo[3.2.1]octan-8-yl)pyridin-2-yl)oxy)cyclobutoxy)cyclohexyl)(isopropyl)amin 0)ethoxy)isoxazol-5-yl)-3-methylbutanoyl)-4-hydroxy-N-((S)-1-(6-(4-methylthiazol-5-yl)pyridin-3-yl)ethyl)pyrrolidine-2-carboxamide]
DC50 (BRM degradation, read-out: BRM DC50): 2.5 to 10 nM | Dmax [6]: > 75%

CC(C)[C@@H](C(=O)N1C[C@H](O)C[C@H]1C(=O)N[C@@H](C)c1ccc(C#N)cc1)c1cc(OCC#Cc2ncc(O[C@H]3C[C@H](Oc4cc(N5C6CCC5CN(c5cc(-c7ccccc7O)nnc5N)C6)ccn4)C3)cn2)no1 [compound 387, (2S,4R)-1-((2R)-2-(3-((3-(5-((1r,3R)-3-((4-(3-(3-amino-6-(2-hydroxyphenyl)pyridazin-4-yl)-3,8-diazabicyclo[3.2.1]octan-8-yl)pyridin-2-yl)oxy)cyclobutoxy)pyrimidin-2-yl)prop-2-yn-1-yl)oxy)isoxazol-5-yl)-3-methylbutanoyl)-N-((S)-1-(4-cyanophenyl)ethyl)-4-hydroxypyrrolidine-2-carboxamide]
Dmax [6]: > 75% | DC50 [1]: < 2.5 nM
